# Data: US7259159B2, “Guanidino derivatives as inhibitors of cell adhesion” (Sanofi-Aventis Deutschland GmbH, priority 2000, dated 2007)
# Target: T1, human vitronectin receptor αvβ3 (Homo sapiens, UniProt P05106+P06756)
# T1 construct: Human vitronectin receptor was obtained from the human placenta according to the method of Pytela et al; from tissue; host or cells: human placenta
# Test: Kistrin binding assay (αvβ3 ELISA test, K/VnR)
# Settings: not given
# Description: The inhibition of the binding of kistrin to human vitronectin receptor (VnR) described below is a test method by which the antagonistic action of the compounds of the invention on the vitronectin receptor αvβ3 can be determined (αvβ3 ELISA Test; the test method is abbreviated as “K/VnR” in the listing of the test results).
# Kistrin was purified according to the methods of Dennis et al., as described in Proc. Natl. Acad. Sci. USA 87 (1989) 2471 and Proteins: Structure, Function and Genetics 15 (1993)312.
# Purification of Human vitronectin Receptor (αvβ3)
# Human vitronectin receptor was obtained from the human placenta according to the method of Pytela et al., Methods Enzymol. 144 (1987) 475. Human vitronectin receptor αvβ3 can also be obtained from some cell lines (for example from 293 cells, a human embryonic kidney cell line) which are co-transfected with DNA sequences for both subunits αv and β3 of the vitronectin receptor. The subunits are extracted with octyl glycoside and then chromatographed through concanavalin A, heparin-Sepharose and S-300.
# Murine monoclonal antibodies which are specific for the β3 subunits of the vitronectin receptor, were prepared according to the method of Newman et al., Blood, 1985, 227, or by a similar process. The rabbit Fab 2 anti-mouse Fc conjugate to horseradish peroxidase (anti-mouse Fc HRP) was obtained from Pel Freeze (Catalog No. 715 305-1).
# The ability of substances to inhibit the binding of kistrin to the vitronectin receptor can be determined using an ELISA test. For this purpose, Nunc 96-well microtiter plates were coated with a solution of kistrin (0.002 mg/ml) according to the method of Dennis et al., as described in Proteins: Structure, Function and Genetics 15 (1993) 312. The plates were then washed twice with PBS/0.05% Tween-20 and blocked by incubating (60 min) with bovine serum albumin (BSA, 0.5%, RIA grade or better) in buffer solution (Tris-HCl (50 mM), NaCl (100 mM), MgCl2 (1 mM), CaCl2 (1 mM), MnCl2 (1 mM), pH 7). Solutions of known inhibitors and of the test substances were prepared in concentrations from 2×10^−12 to 2×10^−6 mol/l in assay buffer (BSA (0.5%, RIA grade or better); Tris-HCl (50 mM), NaCl (100 mM), MgCl2 (1 mM), CaCl2 (1 mM), MnCl2 (1 mM), pH 7). The blocked plates were emptied, and in each case 0.025 ml of this solution which contains a defined concentration (2×10^−12 to 2×10^−6 mol/l) either of a known inhibitor or of a test substance, were added to each well. 0.025 ml of a solution of the vitronectin receptor in assay buffer (0.03 mg/ml) was pipetted into each well of the plate and the plate was incubated at room temperature for 60-180 min on a shaker. In the meantime, a solution (6 ml/plate) of a murine monoclonal antibody specific for the […] of the vitronectin receptor was prepared in assay buffer (0.0015 mg/ml). A second rabbit antibody (0.001 ml of stock solution/6 ml of the murine monoclonal anti-β3 antibody solution) which is an anti-mouse Fc HRP antibody conjugate was added to this solution, and this mixture of murine anti-β3 antibody and rabbit anti-mouse Fc HRP antibody conjugate was incubated during the time of the receptor-inhibitor incubation. The test plates were washed four times with PBS solution which contains 0.05% Tween-20, and in each case 0.05 ml/well of the antibody mixture was pipefted into each well of the plate and incubated for 60-180 min. The plate was washed four times with PBS/0.05% Tween-20 and then developed with 0.05 ml/well of a PBS solution which contained 0.67 mg/ml of ophenylenediamine and 0.012% of H2O2. Alternatively to this, o-phenylenediamine can be employed in a buffer (pH 5) which contains Na3PO4 and citric acid. The color development was stopped using 1 N H2SO4 (0.05 ml/well). The absorption for each well was measured at 492-405 nm and the data are evaluated by standard methods.
# T1 sequence (P06756 31-889 limits assumed): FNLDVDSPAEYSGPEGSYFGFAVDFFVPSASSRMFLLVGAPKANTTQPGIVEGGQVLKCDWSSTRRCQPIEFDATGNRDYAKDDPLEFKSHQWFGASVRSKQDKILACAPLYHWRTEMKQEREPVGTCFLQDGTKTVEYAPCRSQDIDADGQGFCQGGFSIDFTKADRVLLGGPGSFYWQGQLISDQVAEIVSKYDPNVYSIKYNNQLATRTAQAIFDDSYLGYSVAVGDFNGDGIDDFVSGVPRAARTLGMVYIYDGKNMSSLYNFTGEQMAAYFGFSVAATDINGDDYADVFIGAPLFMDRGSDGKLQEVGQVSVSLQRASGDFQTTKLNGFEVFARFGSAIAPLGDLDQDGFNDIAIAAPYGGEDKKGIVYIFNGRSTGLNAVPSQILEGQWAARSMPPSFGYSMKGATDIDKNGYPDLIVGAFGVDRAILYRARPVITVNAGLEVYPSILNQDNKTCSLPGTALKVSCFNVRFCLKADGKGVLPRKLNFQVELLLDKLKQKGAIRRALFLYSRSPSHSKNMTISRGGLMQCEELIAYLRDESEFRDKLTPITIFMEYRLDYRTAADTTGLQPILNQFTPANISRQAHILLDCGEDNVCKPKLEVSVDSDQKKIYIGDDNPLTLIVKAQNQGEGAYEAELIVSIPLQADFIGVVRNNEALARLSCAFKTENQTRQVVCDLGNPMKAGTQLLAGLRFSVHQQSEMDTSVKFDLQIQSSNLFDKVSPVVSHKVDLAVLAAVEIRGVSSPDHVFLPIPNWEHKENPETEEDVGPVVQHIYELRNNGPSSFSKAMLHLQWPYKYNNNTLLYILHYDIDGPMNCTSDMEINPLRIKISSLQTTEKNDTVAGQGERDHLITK
# T1 sequence (P06756 891-1048 partner limits assumed): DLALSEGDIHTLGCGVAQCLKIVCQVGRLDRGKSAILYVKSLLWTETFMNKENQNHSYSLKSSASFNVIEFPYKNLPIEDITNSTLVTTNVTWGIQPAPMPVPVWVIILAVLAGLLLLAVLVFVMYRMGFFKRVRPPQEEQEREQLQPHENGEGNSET
# T1 sequence (P05106 27-788): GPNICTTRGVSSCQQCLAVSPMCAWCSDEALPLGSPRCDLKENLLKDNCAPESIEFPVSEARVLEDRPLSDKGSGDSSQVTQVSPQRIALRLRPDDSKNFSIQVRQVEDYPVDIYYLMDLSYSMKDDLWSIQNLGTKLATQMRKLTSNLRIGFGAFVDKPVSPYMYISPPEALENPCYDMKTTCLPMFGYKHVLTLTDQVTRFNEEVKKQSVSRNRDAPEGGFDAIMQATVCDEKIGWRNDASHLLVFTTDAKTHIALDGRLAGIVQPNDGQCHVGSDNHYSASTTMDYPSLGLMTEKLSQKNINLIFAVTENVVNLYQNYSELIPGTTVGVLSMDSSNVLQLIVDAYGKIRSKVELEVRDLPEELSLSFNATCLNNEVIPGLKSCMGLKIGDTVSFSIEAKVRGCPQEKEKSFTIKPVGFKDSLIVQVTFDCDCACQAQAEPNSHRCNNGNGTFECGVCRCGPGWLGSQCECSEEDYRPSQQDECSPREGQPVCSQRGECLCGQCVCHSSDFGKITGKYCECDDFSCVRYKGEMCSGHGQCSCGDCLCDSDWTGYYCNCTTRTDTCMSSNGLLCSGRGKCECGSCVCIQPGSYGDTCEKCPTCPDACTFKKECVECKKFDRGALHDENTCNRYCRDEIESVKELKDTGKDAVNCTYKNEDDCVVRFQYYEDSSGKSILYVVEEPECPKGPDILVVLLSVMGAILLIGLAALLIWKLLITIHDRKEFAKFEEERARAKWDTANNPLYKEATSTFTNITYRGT
row,SMILES,IC50 [nM]
1,"Cc1nc(NC[C@H](NS(=O)(=O)c2cccc3ccccc23)C(=O)O)c2ccn(CCCC(=O)NC3=NCCCN3)c2n1 [Example 3, (2S)-3-{2-Methyl-7-[3-(1,4,5,6-tetrahydro-pyrimidin-2-ylcarbamoyl)-propyl]-7H-pyrrolo[2,3-d]pyrimidin-4-ylamino}-2-(naphthalene-1-sulfonylamino)-propionic acid]",2.2

# Same assay, conditions: inhibition of the binding of kistrin to human vitronectin receptor (VnR), ELISA; read-out: K/VnR IC50
row,SMILES,IC50 [nM]
1,"O=C(CCCn1cnc2c(NC[C@H](NC(=O)OCc3ccccc3)C(=O)O)ncnc21)NC1=NCCCN1 [Example 1, (2S)-2-Benzyloxycarbonylamino-3-{9-[3-(1,4,5,6-tetrahydro-pyrimidin-2-ylcarbamoyl)-propyl]-9H-purin-6-ylamino}-propionic acid]",22
2,"Cc1nc(NC[C@H](NC(=O)OCc2ccccc2)C(=O)O)c2ccn(CCCC(=O)NC3=NCCCN3)c2n1 [Example 2, (2S)-2-Benzyloxycarbonylamino-3-{2-methyl-7-[3-(1,4,5,6-tetrahydro-pyrimidin-2-ylcarbamoyl)-propyl]-7H-pyrrolo[2,3-d]pyrimidin-4-ylamino}-propionic acid]",3.5
3,"Cc1nc(NC[C@H](NS(=O)(=O)c2ccccc2)C(=O)O)c2ccn(CCCC(=O)NC3=NCCCN3)c2n1 [Example 4, (2S)-3-{2-Methyl-7-[3-(1,4,5,6-tetrahydro-pyrimidin-2-ylcarbamoyl)-propyl]-7H-pyrrolo[2,3-d]pyrimidin-4-ylamino}-2-(benzenesulfonylamino)-propionic acid]",3
4,"Cc1nc(NC[C@H](NS(=O)(=O)c2ccc(Br)cc2)C(=O)O)c2ccn(CCCC(=O)NC3=NCCCN3)c2n1 [Example 5, (2S)-3-{2-Methyl-7-[3-(1,4,5,6-tetrahydro-pyrimidin-2-ylcarbamoyl)-propyl]-7H-pyrrolo[2,3-d]pyrimidin-4-ylamino}-2-(4-bromobenzenesulfonylamino)-propionic acid]",2.6

# Results, then the molecule that gave them:
row,IC50 [nM],SMILES
1,13.5,"Cc1nc(SC[C@H](NS(=O)(=O)c2ccc(Br)cc2)C(=O)O)c2ccn(CCCC(=O)NC3=NCCCN3)c2n1 [Example 6, (2R)-3-{2-Methyl-7-[3-(1,4,5,6-tetrahydro-pyrimidin-2-ylcarbamoyl)-propyl]-7H-pyrrolo[2,3-d]pyrimidin-4-ylsulfanyl}-2-(4-bromobenzenesulfonylamino)-propionic acid]"
2,5,"Cc1nc(SC[C@H](NS(=O)(=O)c2cccc3ccccc23)C(=O)O)c2ccn(CCCC(=O)NC3=NCCCN3)c2n1 [Example 7, (2R)-3-{2-Methyl-7-[3-(1,4,5,6-tetrahydro-pyrimidin-2-ylcarbamoyl)-propyl]-7H-pyrrolo[2,3-d]pyrimidin-4-ylsulfanyl}-2-(naphthalene-1-sulfonylamino)-propionic acid]"
3,10,"Cc1nc(SC[C@H](NS(=O)(=O)c2ccccc2)C(=O)O)c2ccn(CCCC(=O)NC3=NCCCN3)c2n1 [Example 8, (2R)-3-{2-Methyl-7-[3-(1,4,5,6-tetrahydro-pyrimidin-2-ylcarbamoyl)-propyl]-7H-pyrrolo[2,3-d]pyrimidin-4-ylsulfanyl}-2-(benzenesulfonylamino)-propionic acid]"
